From PubChem BioAssay AID330 (DTP/NCI, 2004)
“And” between values parts separate entries of the source, which are not always exact repeats. Identical values can stand only once. Inconclusive results and toxic doses are left out.

Test system: P388 leukemia ip, CD2F1 mice, survival T/C
Assay: NCI In Vivo Anticancer Drug Screen. Data for tumor model P388 Leukemia (intraperitoneal) in CD2F1 (CDF1) mice
Settings: endpoint: median survival time, higher = longer survival
How it was run: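 Mice carrying the transplanted tumor received test compound or vehicle. Survival was recorded in each group, and the value is the treated-group measurement divided by that of the vehicle-treated control group.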

[1] = dose: 50.0 mg/kg/injection, schedule: Q01DX005 (ip), vehicle: Klucel (hydroxypropylcellulose) (HPC)
[2] = dose: 100.0 mg/kg/injection, schedule: Q01DX005 (ip), vehicle: Klucel (hydroxypropylcellulose) (HPC)
[3] = dose: 200.0 mg/kg/injection, schedule: Q01DX005 (ip), vehicle: Klucel (hydroxypropylcellulose) (HPC)
[4] = dose: 25.0 mg/kg/injection, schedule: Q01DX009 (ip), vehicle: Klucel (hydroxypropylcellulose) (HPC)
[5] = dose: 50.0 mg/kg/injection, schedule: Q01DX009 (ip), vehicle: Klucel (hydroxypropylcellulose) (HPC)
[6] = dose: 100.0 mg/kg/injection, schedule: Q01DX009 (ip), vehicle: Klucel (hydroxypropylcellulose) (HPC)
[7] = dose: 100.0 mg/kg/injection, schedule: Q01DX009 (ip), vehicle: saline
[8] = dose: 200.0 mg/kg/injection, schedule: Q01DX009 (ip), vehicle: saline
[9] = dose: 50.0 mg/kg/injection, schedule: Q01DX009 (ip), vehicle: saline
[10] = dose: 12.5 mg/kg/injection, schedule: Q01DX009 (ip), vehicle: Klucel (hydroxypropylcellulose) (HPC)
[11] = dose: 100.0 mg/kg/injection, schedule: Q01DX001 (ip), vehicle: saline with Tween-80

Structure (SMILES): CCCCCCC(O)CCCCCC
- T/C (dose: 100.0 mg/kg/injection, schedule: Q04DX003 (ip), vehicle: other): 104 % of control
- T/C (dose: 200.0 mg/kg/injection, schedule: Q04DX003 (ip), vehicle: other): 109 % of control
- T/C (dose: 400.0 mg/kg/injection, schedule: Q04DX003 (ip), vehicle: other): 100 % of control

Structure (SMILES): CC(NNC(=S)N1CCCCCC1)c1cccc[n+]1[O-] (stereo not drawn)
- T/C [1]: 101 % of control
- T/C [2]: 101 % of control
- T/C [3]: 93 % of control

Structure (SMILES): COc1c(Cl)ncnc1Cl
- T/C [4]: 100 % of control
- T/C [5]: 103 % of control
- T/C [6]: 110 % of control
- T/C (dose: 200.0 mg/kg/injection, schedule: Q01DX009 (ip), vehicle: Klucel (hydroxypropylcellulose) (HPC)): 98 % of control

Structure (SMILES): O=[N+]([O-])c1ccc(N=Nc2ccc(O)cc2O)cc1
- T/C (dose: 100.0 mg/kg/injection, schedule: Q04DX003 (ip), vehicle: saline): 100 % of control
- T/C (dose: 200.0 mg/kg/injection, schedule: Q04DX003 (ip), vehicle: saline): 114 % of control
- T/C (dose: 400.0 mg/kg/injection, schedule: Q04DX003 (ip), vehicle: saline): 115 % of control

Structure (SMILES): CCCCN(CCCC)c1nn[nH]n1
- T/C [1]: 89 % of control
- T/C [2]: 94 % of control
- T/C [3]: 95 % of control

Structure (SMILES): Cc1ccc(NC2SC(=O)N(Cc3ccccc3)/C2=N/N=C2\C(Nc3ccc(C)cc3)SC(=O)N2Cc2ccccc2)cc1 (stereo not drawn)
- T/C (dose: 100.0 mg/kg/injection, schedule: Q04DX002 (ip), vehicle: Klucel (hydroxypropylcellulose) (HPC)): 97 % of control
- T/C (dose: 200.0 mg/kg/injection, schedule: Q04DX002 (ip), vehicle: Klucel (hydroxypropylcellulose) (HPC)): 97 % of control
- T/C (dose: 400.0 mg/kg/injection, schedule: Q04DX002 (ip), vehicle: Klucel (hydroxypropylcellulose) (HPC)): 97 % of control

Structure (SMILES): CN(C)Sc1ccc(Cl)cc1[N+](=O)[O-]
- T/C (dose: 50.0 mg/kg/injection, schedule: Q01DX009 (ip), vehicle: saline with Tween-80): 109 % of control
- T/C (dose: 100.0 mg/kg/injection, schedule: Q01DX009 (ip), vehicle: saline with Tween-80): 100 % of control
- T/C [7]: 97 % of control
- T/C (dose: 200.0 mg/kg/injection, schedule: Q01DX009 (ip), vehicle: saline with Tween-80): 106 % of control
- T/C [8]: 97 % of control

Structure (SMILES): O=C1OC(=O)C2=C1C1c3ccccc3C2c2ccccc21
- T/C (dose: 12.5 mg/kg/injection, schedule: Q01DX005 (ip), vehicle: Klucel (hydroxypropylcellulose) (HPC)): 100 % of control
- T/C (dose: 25.0 mg/kg/injection, schedule: Q01DX005 (ip), vehicle: Klucel (hydroxypropylcellulose) (HPC)): 109 % of control
- T/C [1]: 108 % of control and 110 % of control
- T/C [2]: 106 % of control

Structure (SMILES): CN1CCC2(CCNCC2)C1=O
- T/C [9]: 86 % of control
- T/C [7]: 100 % of control
- T/C [8]: 95 % of control

Structure (SMILES): COC(=O)Nc1cccc(-c2nc3ccc(NC(=O)OC)cc3c(=O)n2-c2ccccc2)c1
- T/C (dose: 6.25 mg/kg/injection, schedule: Q01DX009 (ip), vehicle: Klucel (hydroxypropylcellulose) (HPC)): 111 % of control
- T/C (dose: 8.0 mg/kg/injection, schedule: Q01DX005 (oral), vehicle: Klucel (hydroxypropylcellulose) (HPC)): 109 % of control and 92 % of control
- T/C [10]: 112 % of control
- T/C (dose: 16.0 mg/kg/injection, schedule: Q01DX005 (oral), vehicle: Klucel (hydroxypropylcellulose) (HPC)): 110 % of control and 111 % of control
- T/C (dose: 16.0 mg/kg/injection, schedule: Q01DX005 (oral), vehicle: saline): 108 % of control
- T/C [4]: 153 % of control
- T/C (dose: 25.0 mg/kg/injection, schedule: Q01DX009 (ip), vehicle: saline): 110 % of control
- T/C (dose: 25.0 mg/kg/injection, schedule: Q01DX009 (oral), vehicle: Klucel (hydroxypropylcellulose) (HPC)): 114 % of control
- T/C (dose: 32.0 mg/kg/injection, schedule: Q01DX005 (oral), vehicle: Klucel (hydroxypropylcellulose) (HPC)): 112 % of control
- T/C (dose: 32.0 mg/kg/injection, schedule: Q01DX005 (oral), vehicle: saline): 121 % of control
- T/C [9]: 236 % of control
- T/C (dose: 50.0 mg/kg/injection, schedule: Q01DX009 (oral), vehicle: Klucel (hydroxypropylcellulose) (HPC)): 118 % of control
- T/C (dose: 64.0 mg/kg/injection, schedule: Q01DX005 (oral), vehicle: Klucel (hydroxypropylcellulose) (HPC)): 102 % of control
- T/C [7]: 202 % of control and 236 % of control
- T/C (dose: 128.0 mg/kg/injection, schedule: Q01DX005 (oral), vehicle: Klucel (hydroxypropylcellulose) (HPC)): 102 % of control
- T/C (dose: 128.0 mg/kg/injection, schedule: Q01DX005 (oral), vehicle: saline): 171 % of control
- T/C (dose: 150.0 mg/kg/injection, schedule: Q01DX009 (ip), vehicle: saline): 236 % of control
- T/C (dose: 200.0 mg/kg/injection, schedule: Q01DX009 (oral), vehicle: Klucel (hydroxypropylcellulose) (HPC)): 181 % of control
- T/C (dose: 400.0 mg/kg/injection, schedule: Q01DX009 (oral), vehicle: Klucel (hydroxypropylcellulose) (HPC)): 183 % of control
- T/C (dose: 800.0 mg/kg/injection, schedule: Q01DX009 (oral), vehicle: Klucel (hydroxypropylcellulose) (HPC)): 205 % of control

Structure (SMILES): CSc1nc(Cl)c2cn[nH]c2n1
- T/C (dose: 100.0 mg/kg/injection, schedule: Q04DX002 (ip), vehicle: water): 116 % of control
- T/C (dose: 200.0 mg/kg/injection, schedule: Q04DX002 (ip), vehicle: water): 109 % of control

Structure (SMILES): C/C=C/c1cccc(OC)c1OC
- T/C [11]: 108 % of control
- T/C (dose: 200.0 mg/kg/injection, schedule: Q01DX001 (ip), vehicle: saline with Tween-80): 120 % of control
- T/C (dose: 400.0 mg/kg/injection, schedule: Q01DX001 (ip), vehicle: saline with Tween-80): 110 % of control

Structure (SMILES): CCCN1C=C(C(=O)OCC)C(N)=C(C#N)/C1=C\C=C(/C#N)C(=O)OCC
- T/C (dose: 6.25 mg/kg/injection, schedule: Q01DX001 (ip), vehicle: Klucel (hydroxypropylcellulose) (HPC)): 89 % of control
- T/C (dose: 12.5 mg/kg/injection, schedule: Q01DX001 (ip), vehicle: Klucel (hydroxypropylcellulose) (HPC)): 87 % of control
- T/C (dose: 25.0 mg/kg/injection, schedule: Q01DX001 (ip), vehicle: Klucel (hydroxypropylcellulose) (HPC)): 86 % of control
- T/C (dose: 50.0 mg/kg/injection, schedule: Q01DX001 (ip), vehicle: Klucel (hydroxypropylcellulose) (HPC)): 88 % of control
- T/C (dose: 100.0 mg/kg/injection, schedule: Q01DX001 (ip), vehicle: Klucel (hydroxypropylcellulose) (HPC)): 90 % of control

Structure (SMILES): O=C1c2ccccc2C(=O)c2c3c(cc(NCCNCCO)c21)N(CCO)CCN3
- T/C (dose: 6.25 mg/kg/injection, schedule: Q01DX009 (ip), vehicle: DMSO): 104 % of control
- T/C (dose: 12.5 mg/kg/injection, schedule: Q01DX009 (ip), vehicle: DMSO): 123 % of control
- T/C (dose: 25.0 mg/kg/injection, schedule: Q01DX009 (ip), vehicle: DMSO): 155 % of control
- T/C (dose: 50.0 mg/kg/injection, schedule: Q01DX009 (ip), vehicle: DMSO): 163 % of control
- T/C (dose: 100.0 mg/kg/injection, schedule: Q01DX009 (ip), vehicle: DMSO): 101 % of control
- T/C (dose: 200.0 mg/kg/injection, schedule: Q01DX009 (ip), vehicle: DMSO): 93 % of control

Structure (SMILES): O=NN(CCCl)C(=O)Oc1c(Cl)cc(Cl)cc1Cl
- T/C (dose: 50.0 mg/kg/injection, schedule: Q01DX001 (ip), vehicle: saline with Tween-80): 163 % of control
- T/C (dose: 67.0 mg/kg/injection, schedule: Q01DX001 (ip), vehicle: saline with Tween-80): 99 % of control
- T/C [11]: 193 % of control

Structure (SMILES): O=C(O)CCCCCCCCCCNC(=O)CCl
- T/C [5]: 88 % of control
- T/C [6]: 91 % of control

Structure (SMILES): Cc1nc(C(N)=O)c(=O)[nH]c1C
- T/C (dose: 33.0 mg/kg/injection, schedule: Q04DX003 (ip), vehicle: saline): 100 % of control
- T/C (dose: 50.0 mg/kg/injection, schedule: Q04DX003 (ip), vehicle: saline): 100 % of control
- T/C (dose: 75.0 mg/kg/injection, schedule: Q04DX003 (ip), vehicle: saline): 100 % of control
- T/C (dose: 100.0 mg/kg/injection, schedule: Q04DX003 (ip), vehicle: saline with Tween-80): 100 % of control
- T/C (dose: 200.0 mg/kg/injection, schedule: Q04DX003 (ip), vehicle: saline with Tween-80): 106 % of control
- T/C (dose: 400.0 mg/kg/injection, schedule: Q04DX003 (ip), vehicle: saline with Tween-80): 106 % of control

Structure (SMILES): CCOc1ccc(O)c(CN2CCN(Cc3cc(OCC)ccc3O)CC2)c1
- T/C (dose: 15.0 mg/kg/injection, schedule: Q01DX005 (ip), vehicle: saline with Tween-80): 100 % of control
- T/C (dose: 30.0 mg/kg/injection, schedule: Q01DX005 (ip), vehicle: saline with Tween-80): 100 % of control
- T/C (dose: 60.0 mg/kg/injection, schedule: Q01DX005 (ip), vehicle: saline with Tween-80): 98 % of control and 124 % of control

Structure (SMILES): [O-][N+]12CCCCC1C1CC(C2)C2CCCC(c3ccccc3)N2C1 (stereo not drawn)
- T/C [10]: 101 % of control and 105 % of control and 116 % of control
- T/C [4]: 103 % of control and 112 % of control and 114 % of control
